Experimental findings from patent US20140088144A1, “INHIBITING MICROBIAL INFECTIONS” (THE UNIVERSITY OF KANSAS, priority 2012, published 2014) are described below.

One assay has as its target T1, GB1^b-RhaR (Escherichia coli, UniProt P09378).
T1 construct: GB1basic (N); made in house; host or cells: E. coli ArcticExpress(DE3), pET21-derived plasmid
Briefly: EMSA in vitro DNA binding by GB1^b-RhaR. It is filed as biochemical, E. coli. From the text: All proteins for this study were expressed in E. coli. Untagged CRP was purified by Ni^2+-affinity chromatography as described. Lad protein was purified by ammonium sulfate precipitation and phosphocellulose column chromatography as described. RhaS-GB1^201b and GB1^b-RhaR were purified by Ni^2+-affinity chromatography. Briefly, plasmids derived from pET21 and expressing RhaS-GB1^201b and GB1^b-RhaR were transformed into competent cells of strains Acella™ (MoBiTec, Gottingen, Germany) or ArcticExpress(DE3) (Agilent Technologies, Santa Clara Calif.), respectively. The cells were grown in 1 liter TY plus ampicillin and rhamnose. Gentamycin was also added for GB1^b-RhaR. The cells were grown to OD600 of 0.5, transferred to a 15° C. shaker, 0.1 mM IPTG was added, and then incubated overnight. Cells were harvested by centrifugation and then resuspended in 30 mL of cold binding buffer (20 mM Tris, 500 mM NaCl, 5 mM imidazole, pH 7.9) plus L-rhamnose. Cells were lysed by three cycles of freeze thaw [with addition of lysozyme (0.4 mg/mL), tris(2-carboxyethyl)phosphine (TCEP, 1 mM) and phenylmethylsulfonyl fluoride (PMSF, 1 mM), at −80° C.] followed by sonication, and then centrifuged to remove cell debris. The supernatant was applied using an AKTAexplorer FPLC (GE Healthcare) to a 5 mL HiTrap Chelating HP column (GE Healthcare) that had been charged with 50 mM NiSO4, and equilibrated with 15 mL H2O and then 15 mL binding buffer. After loading, the column was washed with 25 mL binding buffer, then 25 mL wash buffer (binding buffer, but with 60 mM imidazole) plus L-rhamnose. A 10 mL gradient of binding buffer with 60 mM to 250 mM imidazole from was run and then 15 mL of elution buffer (binding buffer, but with 250 mM imidazole). […]
IRD700- and DY682-labeled oligos were from Eurofins MWG Operon. […] EMSA gels were imaged using an Odyssey infrared imager (LI-COR, Lincoln, Nebr.), and quantified using the Odyssey software, version 3.0.30. […] Inhibition values were calculated and graphs were drawn as for in vivo dose-response experiments.
In general terms: In EMSA bound probe runs differently from free probe, usually more slowly.

For the next assay, the target named is T2, MBP-VirF (Shigella flexneri, UniProt P0A2T1).
T2 construct: made in house; host or cells: E. coli KS 1000, plasmid pMALvirF
T2 sequence (P0A2T1 whole entry): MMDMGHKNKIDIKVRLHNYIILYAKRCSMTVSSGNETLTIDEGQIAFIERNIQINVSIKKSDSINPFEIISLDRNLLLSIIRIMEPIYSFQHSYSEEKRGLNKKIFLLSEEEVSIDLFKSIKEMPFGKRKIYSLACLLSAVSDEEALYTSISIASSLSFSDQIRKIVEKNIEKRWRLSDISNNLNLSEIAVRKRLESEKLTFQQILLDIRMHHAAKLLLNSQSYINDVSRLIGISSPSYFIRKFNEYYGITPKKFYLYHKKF
The assay can be described thus: EMSA in vitro DNA binding by VirF (MBP-VirF). The following applies: purified MBP-VirF. The assay is classed as biochemical. As to the method: The IPTG inducible MBP-VirF expression plasmid, pMALvirF, was constructed by cloning virF downstream and in-frame with malE (encoding maltose binding protein, MBP) in the vector pMAL-c2X (New England Biolabs, Beverly, Mass.). MBP-VirF protein (referred to as VirF for simplicity) was purified using amylose affinity chromatography at 4° C. Briefly, pMALvirF was transformed into E. coli strain KS 1000 (New England Biolabs). The cells were grown to an OD600 of 0.5, transferred to 15° C., 0.1 mM IPTG was added, and then incubated overnight with shaking Cells were harvested and resuspended in 10 ml of binding buffer (20 mM Tris, 500 mM NaCl, 1 mM EDTA 1 mM DTT, pH 7.4). Cells were lysed by three freeze thaw cycles with lysozyme (0.4 mg/ml), tris (2-carboxyethyl)phosphine (TCEP, 1 mM) and phenylmethylsulfonyl fluoride (PMSF, 1 mM), at −80° C., followed by sonication and then centrifuged to remove cell debris. […]
Binding of purified VirF to a DNA fragment containing the VirF binding site at virB was analyzed by electrophoretic mobility shift assay (EMSA) (68), in the absence or presence of SE-1. […] Gels were scanned using an Odyssey infrared imager (LI-COR, Lincoln, Nebr.), and quantified using Odyssey software, version 3.0.30. […]

One may read the IC50 as the concentration at which inhibition is half-maximal.

T1 sequence (P09378 whole entry): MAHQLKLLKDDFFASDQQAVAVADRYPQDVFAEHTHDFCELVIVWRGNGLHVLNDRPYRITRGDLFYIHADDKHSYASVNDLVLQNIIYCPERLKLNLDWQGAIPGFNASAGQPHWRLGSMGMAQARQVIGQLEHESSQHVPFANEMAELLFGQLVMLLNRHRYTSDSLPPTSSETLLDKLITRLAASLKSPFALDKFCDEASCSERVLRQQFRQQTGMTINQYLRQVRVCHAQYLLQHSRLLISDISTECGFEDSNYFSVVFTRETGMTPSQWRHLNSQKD

Regarding `CCCCN1C=C(c2ccc3ccccc3n2)C(C[N+](=O)[O-])c2ccccc21` (centres unmarked) [Compound 1, 1-butyl-4-(nitromethyl)-3-quinolin-2-yl-4H-quinoline], on GB1^b-RhaR, the IC50 was approximately 140 µM, the “concentration for 50% inhibition of GB1^b-RhaR relative to RhaS-GB1^201b” value is listed as “two-fold higher” and the “inhibition of GB1^b-RhaR binding to DNA” value is recorded as “fully inhibit”. For the same compound, the “inhibition of DNA binding by VirF” value on MBP-VirF is “similarly inhibits”. The “inhibition of DNA binding by VirF” value on MBP-VirF (listed as SE-1) is “fully inhibit DNA binding”.
